Tests used:
[1] = rat, in vivo; cited from earlier work
TgCRND8 mice = assay: Tolerability of chronic oral administration in TgCRND8 mice; type: in vivo; details: 25 mg/kg per day, nearly 3 months
From the text: All animal handling experiments were approved by the Hong Kong Baptist University Committee on the Use of Human and Animal Subjects in Teaching and Research (HASC, approval #: 12-13/0030). TgCRND8 mice expressing human APP with Swedish (K670N/M671L) and Indiana (V717F) mutations were used to evaluate the effect of baicalein on Aβ. Heterozygous TgCRND8 mice on a C57BL/6J background were used to breed a colony of experimental animals. The TgCRND8 mouse is an early onset model of AD with visible Aβ deposits in the brains of the animals starting from 3 months of age as described in Chishti M A, Yang D S, Janus C, Phinney A L, Home P, Pearson J, Strome R, Zuker N, Loukides J, French J, Turner S, Lozza G, Grilli M, Kunicki S, Morissette C, Paquette J, Gervais F, Bergeron C, Fraser P E, Carlson G A, George-Hyslop P S, Westaway D. (2001) Early-onset amyloid deposition and cognitive deficits in transgenic mice expressing a double mutant form of amyloid precursor protein 695. J Biol Chem 276: 21562-21570. The animals are housed in a controlled environment under a 12/12 hours light/dark cycle. They are allowed free access to food and water. The oral administration of baicalein (25 mg/kg/d) is commenced at 2 months of age and ended at 5 months before being killed. […]

[2] = system: Aβ plaques in TgCRND8 mice; assay: Immunohistochemistry of Aβ plaque burden in TgCRND8 mice; type: in vivo; details: oral, 25 mg/kg per day, 3 months, 4G8 immunostaining, p<0.05
From the text: All animal handling experiments were approved by the Hong Kong Baptist University Committee on the Use of Human and Animal Subjects in Teaching and Research (HASC, approval #: 12-13/0030). TgCRND8 mice expressing human APP with Swedish (K670N/M671L) and Indiana (V717F) mutations were used to evaluate the effect of baicalein on Aβ. Heterozygous TgCRND8 mice on a C57BL/6J background were used to breed a colony of experimental animals. […]
Immunohistochemistry and image analysis of Aβ plaques is performed on coronal brain sections from TgCRND8 mice treated with baicalein or tap water as described previously by Durairajan et al. 2012. […] Images are obtained with a Nikon fluorescent inverted microscope with digital Nikon camera and analyzed by Image J software. Aβ plaque burden is calculated as the area occupied by the Aβ plaques as a percentage of total area of the brain sections.

Compound: O=c1cc(-c2ccccc2)oc2cc(O)c(O)c(O)c12 [baicalein]
- brain bioavailability of baicalein (greater than berberine) [1]: 1 to 10 µM
- adverse side effects (TgCRND8 mice): nor did it cause any notable adverse side effects
- change of animal body weight (TgCRND8 mice): did not significantly change
- increase of area occupied by Aβ deposits in cortex and hippocampus [2]: 44%

From patent US9375457B2, “Composition comprising Rhizoma coptidis, Cortex phellodendri and Fructus gardeniae and for treating neurodegenerative diseases” (Hong Kong Baptist University, priority 2013, dated 2016)
